# Laboratory results from US8410112B2, “Compounds useful as inhibitors of ATR kinase” (Vertex Pharmaceuticals Incorporated, priority 2008, dated 2013).
# Target: T1, full-length ATR (Homo sapiens, UniProt Q13535)
# T1 construct: in the presence of 5 nM full-length ATR
# Assay: ATR Inhibition Assay (radioactive-phosphate incorporation)
# Format: biochemical
# Conditions: Ki(app); 5 nM full-length ATR, 10 μM ATP, 800 μM target peptide, 25° C.
# In short: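 Buffer was 50 mM Tris/HCl pH 7.5, 10 mM MgCl2, 1 mM DTT, with 5 nM enzyme, 10 μM [γ-33P]ATP and 800 μM target peptide at 25 °C. Compound was pre-incubated 10 min before ATP start, and the reaction was stopped after 24 h. Phosphocellulose filter capture; Ki(app) came from non-linear regression of background-corrected initial rates.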
# T1 sequence (Q13535 whole entry): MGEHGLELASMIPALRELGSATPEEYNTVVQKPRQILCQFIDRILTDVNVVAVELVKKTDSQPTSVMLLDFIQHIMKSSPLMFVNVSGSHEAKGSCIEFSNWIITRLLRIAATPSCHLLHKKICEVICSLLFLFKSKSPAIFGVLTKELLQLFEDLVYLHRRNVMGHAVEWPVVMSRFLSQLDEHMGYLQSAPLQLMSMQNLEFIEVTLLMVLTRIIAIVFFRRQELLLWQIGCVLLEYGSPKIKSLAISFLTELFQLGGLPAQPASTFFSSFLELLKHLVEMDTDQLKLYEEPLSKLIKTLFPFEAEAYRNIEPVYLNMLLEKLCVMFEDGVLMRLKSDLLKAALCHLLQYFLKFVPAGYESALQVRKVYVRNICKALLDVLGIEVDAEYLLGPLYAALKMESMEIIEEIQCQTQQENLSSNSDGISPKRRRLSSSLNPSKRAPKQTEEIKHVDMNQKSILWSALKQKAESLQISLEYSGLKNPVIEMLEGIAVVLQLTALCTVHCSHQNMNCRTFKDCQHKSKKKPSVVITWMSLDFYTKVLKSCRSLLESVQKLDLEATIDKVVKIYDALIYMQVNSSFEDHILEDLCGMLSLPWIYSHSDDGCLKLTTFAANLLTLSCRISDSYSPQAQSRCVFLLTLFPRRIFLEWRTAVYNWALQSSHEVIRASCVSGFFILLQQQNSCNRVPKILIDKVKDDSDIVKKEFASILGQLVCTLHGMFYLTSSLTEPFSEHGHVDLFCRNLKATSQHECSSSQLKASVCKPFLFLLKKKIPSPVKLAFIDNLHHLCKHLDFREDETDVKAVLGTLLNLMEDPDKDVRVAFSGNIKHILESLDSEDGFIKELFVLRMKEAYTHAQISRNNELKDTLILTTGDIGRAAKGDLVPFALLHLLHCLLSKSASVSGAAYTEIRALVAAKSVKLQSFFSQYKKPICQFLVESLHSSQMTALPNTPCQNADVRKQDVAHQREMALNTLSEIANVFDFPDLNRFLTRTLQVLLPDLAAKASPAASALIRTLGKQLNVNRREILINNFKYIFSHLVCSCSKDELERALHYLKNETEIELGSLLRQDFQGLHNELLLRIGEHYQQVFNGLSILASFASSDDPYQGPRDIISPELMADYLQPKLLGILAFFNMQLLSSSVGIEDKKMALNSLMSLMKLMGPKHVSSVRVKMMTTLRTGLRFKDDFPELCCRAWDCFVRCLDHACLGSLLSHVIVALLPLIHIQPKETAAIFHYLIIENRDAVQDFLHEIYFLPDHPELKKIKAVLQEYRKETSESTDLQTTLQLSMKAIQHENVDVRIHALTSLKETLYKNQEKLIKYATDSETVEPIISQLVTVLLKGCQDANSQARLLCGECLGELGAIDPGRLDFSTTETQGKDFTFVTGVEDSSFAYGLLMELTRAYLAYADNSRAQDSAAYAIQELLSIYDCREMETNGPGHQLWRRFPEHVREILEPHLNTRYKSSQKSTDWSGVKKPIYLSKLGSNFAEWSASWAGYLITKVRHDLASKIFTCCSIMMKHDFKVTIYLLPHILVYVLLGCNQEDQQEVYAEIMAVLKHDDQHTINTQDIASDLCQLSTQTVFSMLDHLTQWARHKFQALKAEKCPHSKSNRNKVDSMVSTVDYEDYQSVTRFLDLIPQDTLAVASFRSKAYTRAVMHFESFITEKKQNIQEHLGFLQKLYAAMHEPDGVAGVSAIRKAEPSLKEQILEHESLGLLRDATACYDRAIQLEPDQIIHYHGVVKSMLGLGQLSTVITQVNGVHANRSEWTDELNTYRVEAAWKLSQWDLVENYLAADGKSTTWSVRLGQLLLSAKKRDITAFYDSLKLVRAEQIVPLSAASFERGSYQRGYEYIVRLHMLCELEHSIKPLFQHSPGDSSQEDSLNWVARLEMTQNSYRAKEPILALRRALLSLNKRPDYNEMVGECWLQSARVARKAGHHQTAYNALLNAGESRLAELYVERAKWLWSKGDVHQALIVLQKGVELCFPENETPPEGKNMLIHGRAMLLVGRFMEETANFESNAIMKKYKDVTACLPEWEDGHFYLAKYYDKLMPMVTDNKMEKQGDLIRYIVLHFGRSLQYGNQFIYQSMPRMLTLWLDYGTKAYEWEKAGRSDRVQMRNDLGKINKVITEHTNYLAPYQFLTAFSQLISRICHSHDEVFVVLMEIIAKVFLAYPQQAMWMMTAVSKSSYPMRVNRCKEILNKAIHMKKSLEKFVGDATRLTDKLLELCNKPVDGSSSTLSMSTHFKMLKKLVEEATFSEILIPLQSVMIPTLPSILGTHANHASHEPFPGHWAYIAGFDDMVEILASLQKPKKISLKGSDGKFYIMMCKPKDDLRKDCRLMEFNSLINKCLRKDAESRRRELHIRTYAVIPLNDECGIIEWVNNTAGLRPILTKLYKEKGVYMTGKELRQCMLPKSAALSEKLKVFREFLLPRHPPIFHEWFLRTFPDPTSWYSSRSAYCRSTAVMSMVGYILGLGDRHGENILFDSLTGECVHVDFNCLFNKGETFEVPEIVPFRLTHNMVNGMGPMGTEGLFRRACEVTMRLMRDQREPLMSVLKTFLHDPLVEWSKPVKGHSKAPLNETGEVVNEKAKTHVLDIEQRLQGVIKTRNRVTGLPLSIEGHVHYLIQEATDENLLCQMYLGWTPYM
row,SMILES,Ki [nM]
1,"Nc1ncc(C2=CCN(C(=O)Cc3ccccc3)CC2)nc1-c1nnc(-c2ccccc2)o1 [Compound I-201, 1-(4-(5-amino-6-(5-phenyl-1,3,4-oxadiazol-2-yl)pyrazin-2-yl)-5,6-dihydropyridin-1(2H)-yl)-2-phenylethanone]",< 100
2,"Cc1ccc2nc(-c3nc(N4CCSCC4)cnc3N)[nH]c2c1 [Compound I-8, 3-(6-methyl-1H-benzo[d]imidazol-2-yl)-5-thiomorpholinopyrazin-2-amine]",100 to 1000
3,"CCNC1CC=C(c2cnc(N)c(-c3nnc(-c4ccccc4)o3)n2)CC1 (stereo not drawn) [Compound I-314, 5-(4-(Ethylamino)cyclohex-1-enyl)-3-(5-phenyl-1,3,4-oxadiazol-2-yl)pyrazin-2-amine]",100 to 1000
4,"CCS(=O)(=O)N1CCN(c2cnc(N)c(-c3nnc(C4CCCCC4)o3)n2)CC1 [Compound I-72, 3-(5-cyclohexyl-1,3,4-oxadiazol-2-yl)-5-(4-(ethylsulfonyl)piperazin-1-yl)pyrazin-2-amine]",1000 to 10000
5,"Cc1ccc2nc(-c3nc(N4CCC5(CC4)OCCO5)cnc3N)[nH]c2c1 [Compound I-33, 3-(6-methyl-1H-benzo[d]imidazol-2-yl)-5-(1,4-dioxa-8-azaspiro[4.5]decan-8-yl)pyrazin-2-amine]",1000 to 10000
6,"CC(C)(C)C(=O)N[C@H]1CCN(c2cnc(N)c(-c3nc4ccccc4[nH]3)n2)C1 [Compound I-111, (S)-N-(1-(5-amino-6-(1H-benzo[d]imidazol-2-yl)pyrazin-2-yl)pyrrolidin-3-yl)-2,2-dimethylpropanamide]",100 to 1000
7,"Nc1ncc(C2=CCN(S(=O)(=O)c3ccsc3)CC2)nc1-c1nnc(-c2ccccc2)o1 [Compound I-121, 3-(5-phenyl-1,3,4-oxadiazol-2-yl)-5-(1-(thiophen-3-ylsulfonyl)-1,2,3,6-tetrahydropyridin-4-yl)pyrazin-2-amine]",< 100
8,"Nc1ncc(C2=CCN(C(=O)OCc3ccccc3)CC2)nc1-c1nc2ccccc2[nH]1 [Compound I-261, benzyl 4-(5-amino-6-(1H-benzo[d]imidazol-2-yl)pyrazin-2-yl)-5,6-dihydropyridine-1(2H)-carboxylate]",100 to 1000
9,"CN(C)C(=O)N1CC=C(c2cnc(N)c(-c3nc4ccccc4[nH]3)n2)CC1 [Compound I-234, 4-(5-amino-6-(1H-benzo[d]imidazol-2-yl)pyrazin-2-yl)-N,N-dimethyl-5,6-dihydropyridine-1(2H)-carboxamide]",100 to 1000
10,"CCS(=O)(=O)N1CC=C(c2cnc(N)c(-c3nc4ccccc4[nH]3)n2)CC1 [Compound I-71, 3-(1H-benzo[d]imidazol-2-yl)-5-(1-(ethylsulfonyl)-1,2,3,6-tetrahydropyridin-4-yl)pyrazin-2-amine]",< 100
11,"CNCc1ccc(-c2nnc(-c3nc(C4CC4C(=O)N4CC[C@@H](N)C4)cnc3N)o2)cc1 (stereo partly drawn) [Compound I-374, (2-(5-Amino-6-(5-(4-((methylamino)methyl)phenyl)-1,3,4-oxadiazol-2-yl)pyrazin-2-yl)cyclopropyl)((R)-3-aminopyrrolidin-1-yl)methanone]",1000 to 10000
12,"CCNC(=O)O[C@H]1CCN(c2cnc(N)c(-c3nnc(-c4ccc(CNC)cc4)o3)n2)C1 [Compound I-372, [(3S)-1-[5-Amino-6-[5-[4-(methylaminomethyl)phenyl]-1,3,4-oxadiazol-2-yl]pyrazin-2-yl]pyrrolidin-3-yl]N-ethylcarbamate]",100 to 1000
13,"Nc1ncc(N2CCCC2=O)nc1-c1nc2ccccc2[nH]1 [Compound I-75, 1-(5-amino-6-(1H-benzo[d]imidazol-2-yl)pyrazin-2-yl)pyrrolidin-2-one]",1000 to 10000
14,"CCC(CC)C(=O)N[C@H]1CCN(c2cnc(N)c(-c3nc4ccccc4[nH]3)n2)C1 [Compound I-211, (S)-N-(1-(5-amino-6-(1H-benzo[d]imidazol-2-yl)pyrazin-2-yl)pyrrolidin-3-yl)-2-ethylbutanamide]",1000 to 10000
15,"CCS(=O)(=O)N1CCN(c2cnc(N)c(-c3nnc(-c4cccc(N)c4)[nH]3)n2)CC1 [Compound I-57, 3-(5-(3-aminophenyl)-4H-1,2,4-triazol-3-yl)-5-(4-(ethylsulfonyl)piperazin-1-yl)pyrazin-2-amine]",100 to 1000
16,"CCS(=O)(=O)N1CC2CN(c3cnc(N)c(-c4nc5ccc(C)cc5[nH]4)n3)CC2C1 (stereo not drawn) [Compound I-158, 5-(5-(ethylsulfonyl)hexahydropyrrolo[3,4-c]pyrrol-2(1H)-yl)-3-(6-methyl-1H-benzo[d]imidazol-2-yl)pyrazin-2-amine]",100 to 1000

# Continued, values first:
row,Ki [nM],SMILES
1,100 to 1000,"CC#CCOC(=O)N1CCN(c2cnc(N)c(-c3nnc(-c4ccccc4)o3)n2)CC1 [Compound I-246, but-2-ynyl 4-(5-amino-6-(5-phenyl-1,3,4-oxadiazol-2-yl)pyrazin-2-yl)piperazine-1-carboxylate]"
2,100 to 1000,"Nc1ncc(N2CCN(C(=O)C3CCCC3)CC2)nc1C(=O)Nc1ccccn1 [Compound I-144, 3-amino-6-(4-(cyclopentanecarbonyl)piperazin-1-yl)-N-(pyridin-2-yl)pyrazine-2-carboxamide]"
3,100 to 1000,"Nc1ncc(N2CCN(C(=O)c3ccccn3)CC2)nc1-c1nnc(-c2ccccc2)o1 [Compound I-187, (4-(5-amino-6-(5-phenyl-1,3,4-oxadiazol-2-yl)pyrazin-2-yl)piperazin-1-yl)(pyridin-2-yl)methanone]"
4,1000 to 10000,"Cc1ccc2nc(-c3nc(N4CCN(c5ccccn5)CC4)cnc3N)[nH]c2c1 [Compound I-64, 3-(6-methyl-1H-benzo[d]imidazol-2-yl)-5-(4-(pyridin-2-yl)piperazin-1-yl)pyrazin-2-amine]"
5,100 to 1000,"Nc1ncc(N2CCN(C(=O)c3ccccn3)CC2)nc1-c1nc2ccccc2[nH]1 [Compound I-176, (4-(5-amino-6-(1H-benzo[d]imidazol-2-yl)pyrazin-2-yl)piperazin-1-yl)(pyridin-2-yl)methanone]"
6,100 to 1000,"Nc1ncc(N2CCN(S(=O)(=O)c3ccccc3)CC2)nc1C(=O)Nc1ccccn1 [Compound I-207, 3-amino-6-(4-(phenylsulfonyl)piperazin-1-yl)-N-(pyridin-2-yl)pyrazine-2-carboxamide]"
7,100 to 1000,"Nc1ncc(N2CCN(C(=O)C3CCC3)CC2)nc1C(=O)Nc1ccccn1 [Compound I-145, 3-amino-6-(4-(cyclobutanecarbonyl)piperazin-1-yl)-N-(pyridin-2-yl)pyrazine-2-carboxamide]"
8,100 to 1000,"CN(C)S(=O)(=O)N1CCN(c2cnc(N)c(-c3nc4ccccc4[nH]3)n2)CC1 [Compound I-88, 4-(5-amino-6-(1H-benzo[d]imidazol-2-yl)pyrazin-2-yl)-N,N-dimethylpiperazine-1-sulfonamide]"
9,1000 to 10000,"CC(=O)N1CCN(c2cnc(N)c(C(=O)Nc3ccccn3)n2)CC1 [Compound I-142, 3-amino-6-(4-ethanoylpiperazin-1-yl)-N-(pyridin-2-yl)pyrazine-2-carboxamide]"
10,1000 to 10000,"Nc1ncc(N2CCN(C(=O)C3CCOCC3)CC2)nc1C(=O)Nc1ccccn1 [Compound I-230, 3-amino-N-(pyridin-2-yl)-6-(4-(tetrahydro-2H-pyran-4-carbonyl)piperazin-1-yl)pyrazine-2-carboxamide]"
11,1000 to 10000,"Nc1ncc(N2CCN(C(=O)OCc3ccccc3)CC2)nc1C(=O)Nc1ccccn1 [Compound I-260, benzyl 4-(5-amino-6-(pyridin-2-ylcarbamoyl)pyrazin-2-yl)piperazine-1-carboxylate]"
